Legend:
[1] = Solubilization of itraconazole in aqueous acetic acid solutions, visually monitored for dissolution (Example 1); format: physicochemical; settings: 100 mg itraconazole
Experimental: Acetic acid solutions were prepared in water to 10%, 20%, 50% and 75% concentrations (expressed as volume glacial acetic acid/total volume of solution ×100). 100 mg itraconazole solute were then mixed independently with 1 ml of each solution and visually monitored for dissolution. If necessary, additional 1 ml aliquots of each acetic acid solution were added until the itraconazole solute was dissolved.

[2] = cited from earlier work

Q: Which results are given for `CCC(C)n1ncn(-c2ccc(N3CCN(c4ccc(OCC5COC(Cn6cncn6)(c6ccc(Cl)cc6Cl)O5)cc4)CC3)cc2)c1=O` (racemic) [itraconazole]?
A: Solubility ([1]; 10% acetic acid v:v, 1 ml solvent, cold): Ins.; Solubility ([1]; 10% acetic acid v:v, 1 ml solvent, hot): Ins.; Solubility ([1]; 10% acetic acid v:v, 2 ml solvent, cold): Ins.; Solubility ([1]; 10% acetic acid v:v, 2 ml solvent, hot): Ins.; Solubility ([1]; 10% acetic acid v:v, 3 ml solvent, cold): Ins.; Solubility ([1]; 10% acetic acid v:v, 3 ml solvent, hot): Ins.; Solubility ([1]; 10% acetic acid v:v, 4 ml solvent, hot): Ins.; Solubility ([1]; 20% acetic acid v:v, 1 ml solvent, cold): Ins.; Solubility ([1]; 20% acetic acid v:v, 1 ml solvent, hot): Ins.; Solubility ([1]; 20% acetic acid v:v, 2 ml solvent, cold): Ins.; Solubility ([1]; 20% acetic acid v:v, 2 ml solvent, hot): Ins.; Solubility ([1]; 20% acetic acid v:v, 3 ml solvent, cold): Ins.; Solubility ([1]; 20% acetic acid v:v, 3 ml solvent, hot): Part; Solubility ([1]; 50% acetic acid v:v, 1 ml solvent, cold): Ins.; Solubility ([1]; 50% acetic acid v:v, 1 ml solvent, hot): Ins.; Solubility ([1]; 50% acetic acid v:v, 2 ml solvent, cold): Ins.; Solubility ([1]; 50% acetic acid v:v, 2 ml solvent, hot): Sol.; Solubility ([1]; 50% acetic acid v:v, 3 ml solvent, cold): Ins.; Solubility ([1]; 75% acetic acid v:v, 1 ml solvent, cold): Sol.; solubility in water [2]: less than 0.00001 g/ml

Reference: US6461545B1, “Method of solubilizing and encapsulating itraconazole” (Emisphere Technologies, Inc., priority 1995, dated 2002)
